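In this assay, cells in 96-well plates receive the compound at five concentrations for 48 hours. Endpoints are linearly interpolated between the surrounding concentrations. GI50 marks 50% less growth.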 Active and inactive are the calls of the source. No stated cut-off is given here; in the data, active = GI50 up to about 1.1 µM and inactive = higher.
Experiments:
Assay in all cases: NCI-60 cell line screen, 48 h
A549 = test system: A549
ACHN = test system: ACHN
HCT-116 = test system: HCT-116
HOP-62 = test system: HOP-62
Hs-578T = test system: Hs-578T
KM12 = test system: KM12
M14 = test system: M14
MDA-N = test system: MDA-N
Malme-3M = test system: Malme-3M
NCI-H460 = test system: NCI-H460
OVCAR-3 = test system: OVCAR-3
OVCAR-8 = test system: OVCAR-8
SF-295 = test system: SF-295
SF-539 = test system: SF-539
SNB-19 = test system: SNB-19
TK-10 = test system: TK-10
U-251 = test system: U-251
HL-60 = test system: HL-60
IGROV-1 = test system: IGROV-1
NCI/ADR-RES = test system: NCI/ADR-RES

Measured: GI50

CC(=O)OC[C@@H](OC(C)=O)[C@H](OC(C)=O)[C@@H]1OC(C)(C)O[C@@H]1C1SCCCS1
inactive: A549 > 100 µM | ACHN > 100 µM | HCT-116 > 100 µM | HOP-62 > 100 µM | Hs-578T > 100 µM | KM12 > 100 µM | M14 > 100 µM | MDA-N > 100 µM | Malme-3M > 100 µM | NCI-H460 > 100 µM | OVCAR-3 > 100 µM | OVCAR-8 > 100 µM | SF-295 > 100 µM | SF-539 > 100 µM | SNB-19 > 100 µM | TK-10 > 100 µM | U-251 > 100 µM

NCCCN(CCCCN(CCCN)CCCc1ccccc1)CCCc1ccccc1
inactive: A549 3.23 µM | ACHN 2.68 µM | HCT-116 1.82 µM | HL-60 1.15 µM | HOP-62 9.89 µM | Hs-578T 1.81 µM | IGROV-1 2.65 µM | KM12 2.55 µM | M14 1.76 µM | MDA-N 1.74 µM | NCI-H460 1.42 µM | NCI/ADR-RES 20.1 µM | OVCAR-3 1.73 µM | OVCAR-8 8.71 µM | SF-295 1.69 µM | SF-539 1.86 µM | SNB-19 1.19 µM | TK-10 12.4 µM | U-251 1.98 µM

COc1cc(Cc2cnc(N)nc2N)cc(OC)c1OCCCNc1ccc([N+](=O)[O-])cc1
inactive: A549 13 µM | ACHN 18 µM | HCT-116 12.6 µM | HOP-62 13.6 µM | Hs-578T 18.5 µM | IGROV-1 12.5 µM | KM12 14.4 µM | M14 6.35 µM | MDA-N 16.2 µM | Malme-3M 12.7 µM | NCI-H460 7.48 µM | NCI/ADR-RES 18.6 µM | OVCAR-3 14.5 µM | OVCAR-8 14.3 µM | SF-539 12.7 µM | SNB-19 12.8 µM | TK-10 14.3 µM | U-251 13.7 µM

COc1ccc(/N=N/c2ccc3oc(=O)c(C(=O)Nc4ccc(Cl)cc4)cc3c2)cc1
inactive: ACHN > 10 µM | HOP-62 > 10 µM | Hs-578T > 10 µM | IGROV-1 3.52 µM | KM12 4.32 µM | M14 > 10 µM | MDA-N > 10 µM | Malme-3M > 10 µM | NCI-H460 > 10 µM | NCI/ADR-RES 5.5 µM | OVCAR-3 7.28 µM | OVCAR-8 > 10 µM | SF-295 > 10 µM | SF-539 5.18 µM | TK-10 > 10 µM | U-251 5.4 µM

O=C1C(=Cc2ccc(O)cc2)N=C(c2ccccc2)N1n1c(-c2ccccc2)nc2ccccc2c1=O
inactive: A549 > 100 µM | HCT-116 > 100 µM | HL-60 40.6 µM | HOP-62 > 100 µM | Hs-578T 81.5 µM | IGROV-1 > 100 µM | KM12 > 100 µM | M14 > 100 µM | MDA-N > 100 µM | Malme-3M > 100 µM | OVCAR-8 > 100 µM | SF-295 > 100 µM | SF-539 > 100 µM | SNB-19 > 100 µM | TK-10 > 100 µM

O=C(c1cc(Cl)ccc1Cl)N1CCN(C(=O)c2cc(Cl)ccc2Cl)CC1
inactive: A549 > 100 µM | ACHN 94.4 µM | HCT-116 > 100 µM | HL-60 > 100 µM | HOP-62 38.8 µM | Hs-578T > 100 µM | IGROV-1 > 100 µM | KM12 > 100 µM | M14 > 100 µM | MDA-N > 100 µM | Malme-3M > 100 µM | NCI-H460 > 100 µM | OVCAR-3 > 100 µM | OVCAR-8 30.2 µM | SF-295 91 µM | SF-539 > 100 µM | SNB-19 > 100 µM | TK-10 > 100 µM | U-251 > 100 µM

C#CCn1c(=O)c2cc(OC)c(OC)cc2n(CC#C)c1=O
inactive: A549 > 10 µM | ACHN > 10 µM | HCT-116 > 10 µM | HOP-62 > 10 µM | Hs-578T > 10 µM | IGROV-1 > 10 µM | KM12 > 10 µM | M14 > 10 µM | MDA-N > 10 µM | Malme-3M > 10 µM | NCI-H460 > 10 µM | NCI/ADR-RES > 10 µM | OVCAR-3 > 10 µM | OVCAR-8 > 10 µM | SF-295 > 10 µM | SF-539 > 10 µM | SNB-19 > 10 µM | TK-10 > 10 µM | U-251 > 10 µM

O=C(CCN1CCCCC1)c1csc2ccccc12
inactive: A549 > 100 µM | ACHN > 100 µM | HCT-116 > 100 µM | HOP-62 > 100 µM | Hs-578T > 100 µM | IGROV-1 > 100 µM | KM12 33.1 µM | M14 > 100 µM | MDA-N > 100 µM | Malme-3M > 100 µM | NCI-H460 > 100 µM | NCI/ADR-RES > 100 µM | OVCAR-3 > 100 µM | OVCAR-8 > 100 µM | SF-295 > 100 µM | SF-539 > 100 µM | SNB-19 > 100 µM | TK-10 94.6 µM | U-251 > 100 µM

CCOc1ccc(-n2nnc3c(N)nc(N)nc32)cc1
inactive: A549 > 100 µM | ACHN > 100 µM | HCT-116 > 100 µM | HL-60 > 10 µM | HOP-62 > 100 µM | IGROV-1 > 100 µM | KM12 > 100 µM | M14 > 100 µM | MDA-N > 100 µM | Malme-3M > 100 µM | NCI-H460 > 100 µM | NCI/ADR-RES > 100 µM | OVCAR-3 > 100 µM | OVCAR-8 > 100 µM | SF-295 > 100 µM | SF-539 > 100 µM | SNB-19 29.1 µM | TK-10 > 100 µM | U-251 > 100 µM

COC(=O)[C@@]12CC3CN(Cc4c1[nH]c1ccccc41)C2CC3=O
inactive: A549 > 100 µM | ACHN > 100 µM | HCT-116 > 100 µM | HL-60 > 100 µM | HOP-62 > 100 µM | IGROV-1 > 100 µM | KM12 > 100 µM | M14 > 100 µM | MDA-N > 100 µM | Malme-3M > 100 µM | NCI-H460 > 100 µM | NCI/ADR-RES > 100 µM | OVCAR-3 > 100 µM | OVCAR-8 > 100 µM | SF-295 > 100 µM | SF-539 > 100 µM | SNB-19 > 100 µM | TK-10 > 100 µM | U-251 > 100 µM

CC(=O)/N=C1\NC(=O)/C(=C/c2ccccc2Cl)N1C
inactive: A549 > 100 µM | ACHN > 100 µM | HCT-116 > 100 µM | HL-60 > 100 µM | HOP-62 > 100 µM | Hs-578T > 100 µM | IGROV-1 > 100 µM | KM12 > 100 µM | M14 > 100 µM | MDA-N > 100 µM | NCI-H460 > 100 µM | NCI/ADR-RES 43.2 µM | OVCAR-3 > 100 µM | OVCAR-8 > 100 µM | SF-295 > 100 µM | SF-539 > 100 µM | SNB-19 > 100 µM | TK-10 > 100 µM | U-251 > 100 µM

Source: ChEMBL document CHEMBL1201862, “PubChem BioAssay data set” (2004)
